Patent US20230338316A1, “ABBAPOLINS AS INHIBITORS AND DEGRADERS OF POLO-LIKE KINASES” (UNIVERSITY OF SOUTH CAROLINA, priority 2022, published 2023)

Key:
[1] = test system: SH-SY5Y neuroblastoma cells overexpressing PLK1; assay: Cell viability assay in neuroblastoma cells; format: cell-based
Experimental: (§1) Abbapolin compounds activity was evaluated in neuroblastoma cells. […] Further, abbapolins induced PLK1 degradation in SH-SY5Y cells (FIG. 14-16).

[2] = target: PLK1 (Homo sapiens, UniProt P53350); assay: PLK1 degradation in SH-SY5Y cells; format: cell-based; parameters: endogenous in cells
PLK1, sequence (P53350 whole entry): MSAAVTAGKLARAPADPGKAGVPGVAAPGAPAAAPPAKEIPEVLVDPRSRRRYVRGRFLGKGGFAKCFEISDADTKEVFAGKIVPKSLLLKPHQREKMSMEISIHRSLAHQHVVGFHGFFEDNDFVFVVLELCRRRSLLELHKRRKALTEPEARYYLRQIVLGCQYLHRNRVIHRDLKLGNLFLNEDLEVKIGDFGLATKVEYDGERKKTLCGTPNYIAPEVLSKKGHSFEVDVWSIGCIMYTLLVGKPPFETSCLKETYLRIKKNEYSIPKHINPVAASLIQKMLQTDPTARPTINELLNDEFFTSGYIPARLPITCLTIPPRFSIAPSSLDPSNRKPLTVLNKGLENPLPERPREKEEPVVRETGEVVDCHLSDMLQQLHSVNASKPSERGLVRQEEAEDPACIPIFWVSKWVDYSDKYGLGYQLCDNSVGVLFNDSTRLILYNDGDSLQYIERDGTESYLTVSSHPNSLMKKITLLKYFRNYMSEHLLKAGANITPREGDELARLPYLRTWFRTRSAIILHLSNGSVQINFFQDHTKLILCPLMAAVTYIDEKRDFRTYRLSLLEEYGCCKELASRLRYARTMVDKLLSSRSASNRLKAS
Experimental: as §1

[3] = test system: HL-60(TB); assay: Single dose cell viability assay, HL-60(TB); format: cell-based; settings: HL-60(TB) (Leukemia), single dose 10 μM
Experimental: (§2) Lead abbapolin compounds were tested in multiple cancer cell lines, including non-small cell lung cancer (NSCLC) cells, melanoma cells, colon cancer cells, central nervous system (CNS) cancer cells, prostate cancer cells, renal cancer cells, and breast cancer cells. Each of these cancer cells lines were sensitive to the lead abbapolin compounds in a cell viability assay, including 6184 (Table 3), 6277 (Table 4), 6279 (Table 5), 6355 (Table 6), 6359 (Table 7), 6369 (Table 8), and 6421 (Table 9).

[4] = target: T1, PLK1 PBD (367-603) (Homo sapiens, UniProt P53350); assay: Fluorescence polarization assay, PLK1 PBD; format: binding; settings: Table 10; target not named at the place; read-out: in vitro binding IC50
T1 construct: PLK1 PBD (367-603) and PLK3 PBD (335-646) proteins were obtained from BPS Biosciences Inc; purchased BPS Biosciences Inc. (San Diego, CA)
T1 sequence (P53350 367-603): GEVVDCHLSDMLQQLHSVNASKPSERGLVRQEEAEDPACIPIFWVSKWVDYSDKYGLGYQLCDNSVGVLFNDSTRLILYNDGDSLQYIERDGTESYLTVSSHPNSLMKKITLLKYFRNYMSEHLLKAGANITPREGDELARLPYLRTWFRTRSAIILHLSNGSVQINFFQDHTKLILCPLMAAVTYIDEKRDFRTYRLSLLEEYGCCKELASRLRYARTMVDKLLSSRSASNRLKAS
Experimental: Materials were dissolved in DMSO (10 mM) and diluted from 10 nM to 600 μM (maximum of 6% DMSO tolerance in the assay). PLK1 PBD (367-603) and PLK3 PBD (335-646) proteins were obtained from BPS Biosciences Inc. (San Diego, CA); 17 ng PLK1 and 156 ng PLK3 were used per reaction. The fluorescein-tracer phospho-peptides (MAGPMQS[pT]PLNGAKK (SEQ ID NO: 1) for PLK1, and GPLATS[pT]PKNG (SEQ ID NO: 2) for PLK3) were used at a final concentration of 10 nM. Incubation was carried out at room temperature for 45 minutes. Fluorescence was measured using a DTX 880 plate reader and Multimode Analysis software (Beckman Coulter, Brea, CA). The polarization values in millipolarization (mP) units were measured at an excitation wavelength of 488 nm and an emission wavelength of 535 nm. Each data point was performed in triplicate for every experiment, and experiments were performed at least three times. An IC50 value for each compound was calculated from linear regression analysis of the plots.

[5] = test system: HOP-92; assay: Single dose cell viability assay, HOP-92; format: cell-based; settings: HOP-92 (NSCLC), single dose 10 μM
Experimental: as §2

[6] = test system: NCI-H522; assay: Single dose cell viability assay, NCI-H522; format: cell-based; settings: NCI-H522 (NSCLC), single dose 10 μM
Experimental: as §2

With “3-(4-octylbenzamido)phenyl phosphate [compound 6369]” the IC50 [1] was 232 ± 55 µM, the PLK1 degradation [2] was “degradation of PLK1” and the “Cells Remaining (%)” value [3] was 54.82%. For the same substance, the IC50 [4] was 115 µM, the “Cells Remaining (%)” value [5] was 43.19% and the “Cells Remaining (%)” value [6] was 33.06%.
